Measured values as given in patent US20170190671A1, “BIS(ARYL)CATECHOL DERIVATIVES AS HERBICIDES” (E I DU PONT DE NEMOURS AND COMPANY, priority 2014, published 2017).

Columns and labels:
Assay type in all cases: in vivo
rice (Oryza sativa) = experiment: Test B flooded paddy; conditions: Oryza sativa, 336 h; 250 g ai/ha, Flood, 13 to 15 days, scale 0 (no effect) to 100 (complete control); read-out: Plant response rating, Rice
Outline: (§1)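 Compound was added to standing water 3 cm above soil, flood maintained, and plants held in a greenhouse before visual scoring against controls at 13 to 15 days.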

[1] = test system: ducksalad (Heteranthera limosa); experiment: Test B flooded paddy; conditions: Heteranthera limosa, 336 h; 250 g ai/ha, Flood, 13 to 15 days, scale 0 (no effect) to 100 (complete control); read-out: Plant response rating, Ducksalad
Outline: as §1

[2] = test system: sedge, umbrella (small-flower umbrella sedge, Cyperus difformis); experiment: Test B flooded paddy; conditions: Cyperus difformis, 336 h; 250 g ai/ha, Flood, 13 to 15 days, scale 0 (no effect) to 100 (complete control); read-out: Plant response rating, Sedge, Umbrella
Outline: as §1

[3] = test system: barnyardgrass (Echinochloa crus-galli); experiment: Test B flooded paddy; conditions: Echinochloa crus-galli, 336 h; 250 g ai/ha, Flood, 13 to 15 days, scale 0 (no effect) to 100 (complete control); read-out: Plant response rating, Barnyardgrass
Outline: as §1

[4] = test system: giant foxtail (Setaria faberii); experiment: Test A postemergence; conditions: Setaria faberi, post-emergence, 240 h, 0 to 100 scale, read-out: Plant response rating, Foxtail, Giant
Outline: (§2)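 Compounds in non-phytotoxic solvent with surfactant applied as soil spray preemergence, or postemergence to plants 2-10 cm at one- to two-leaf stage, in loam/sand. After approximately 10 days in greenhouse, injury rated visually versus untreated controls, 0 (no effect) to 100 (complete control).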

[5] = test system: Italian ryegrass (Lolium multiflorum); experiment: Test A postemergence; conditions: Lolium multiflorum, post-emergence, 240 h, 0 to 100 scale, read-out: Plant response rating, Ryegrass, Italian
Outline: as §2

[6] = test system: wheat (Triticum aestivum); experiment: Test A postemergence; conditions: Triticum aestivum, post-emergence, 240 h, 0 to 100 scale, read-out: Plant response rating, Wheat
Outline: as §2

corn (Zea mays) = experiment: Test A postemergence; conditions: Zea mays, post-emergence, 240 h, 0 to 100 scale
Outline: as §2

[7] = test system: blackgrass (Alopecurus myosuroides); experiment: Test A postemergence; conditions: Alopecurus myosuroides, post-emergence, 240 h, 0 to 100 scale, read-out: Plant response rating, Blackgrass
Outline: as §2

[8] = test system: pigweed (Amaranthus retroflexus); experiment: Test A postemergence; conditions: Amaranthus retroflexus, post-emergence, 240 h, 0 to 100 scale, read-out: Plant response rating, Pigweed
Outline: as §2

[9] = test system: galium (catchweed bedstraw, Galium aparine); experiment: Test A postemergence; conditions: Galium, post-emergence, 240 h, 0 to 100 scale, read-out: Plant response rating, Galium
Outline: as §2

[10] = test system: barnyardgrass (Echinochloa crus-galli); experiment: Test A postemergence; conditions: Echinochloa crus-galli, post-emergence, 240 h, 0 to 100 scale, read-out: Plant response rating, Barnyardgrass
Outline: as §2

[11] = test system: ragweed (common ragweed, Ambrosia elatior); experiment: Test A postemergence; conditions: Ambrosia artemisiifolia, post-emergence, 240 h, 0 to 100 scale, read-out: Plant response rating, Ragweed
Outline: as §2

kochia (Kochia scoparia) [12] = experiment: Test A postemergence; conditions: Bassia scoparia, post-emergence, 240 h, 0 to 100 scale, read-out: Plant response rating, Kochia
Outline: as §2

[13] = test system: giant foxtail (Setaria faberii); experiment: Test A preemergence; conditions: Setaria faberi, pre-emergence, 240 h, 0 to 100 scale, read-out: Plant response rating, Foxtail, Giant
Outline: as §2

[14] = test system: Italian ryegrass (Lolium multiflorum); experiment: Test A preemergence; conditions: Lolium multiflorum, pre-emergence, 240 h, 0 to 100 scale, read-out: Plant response rating, Ryegrass, Italian
Outline: as §2

[15] = test system: pigweed (Amaranthus retroflexus); experiment: Test A preemergence; conditions: Amaranthus retroflexus, pre-emergence, 240 h, 0 to 100 scale, read-out: Plant response rating, Pigweed
Outline: as §2

[16] = test system: barnyardgrass (Echinochloa crus-galli); experiment: Test A preemergence; conditions: Echinochloa crus-galli, pre-emergence, 240 h, 0 to 100 scale, read-out: Plant response rating, Barnyardgrass
Outline: as §2

[17] = test system: ragweed (common ragweed, Ambrosia elatior); experiment: Test A preemergence; conditions: Ambrosia artemisiifolia, pre-emergence, 240 h, 0 to 100 scale, read-out: Plant response rating, Ragweed
Outline: as §2

kochia (Kochia scoparia) [18] = experiment: Test A preemergence; conditions: Bassia scoparia, pre-emergence, 240 h, 0 to 100 scale, read-out: Plant response rating, Kochia
Outline: as §2

[19] = test system: galium (catchweed bedstraw, Galium aparine); experiment: Test C preemergence; conditions: Galium, pre-emergence, 336 h, scale 0 to 100, read-out: Plant response rating, Galium
Source text: (§3) Seeds of plant species selected from blackgrass (Alopecurus myosuroides), Italian ryegrass (Lolium multiflorum), winter wheat (Triticum aestivum), galium (catchweed bedstraw, Galium aparine), corn (Zea mays), large (Lg) crabgrass (Digitaria sanguinalis), giant foxtail (Setaria faberii), johnsongrass (Sorghum halepense), lambsquarters (Chenopodium album), morningglory (Ipomoea coccinea), yellow nutsedge (Cyperus esculentus), pigweed (Amaranthus retroflexus), ragweed (common ragweed, Ambrosia elatior), soybean (Glycine max), barnyardgrass (Echinochloa crus-galli), oilseed rape (Brassica napus), waterhemp (common waterhemp, Amaranthus rudis), and velvetleaf (Abutilon theophrasti) were planted into a blend of loam soil and sand and treated preemergence with test chemicals formulated in a non-phytotoxic solvent mixture which included a surfactant.
(§4) At the same time, plants selected from these crop and weed species and also chickweed (common chickweed, Stellaria media), kochia (Kochia scoparia), and wild oat (Avena fatua), were planted in pots containing Redi-Earth® planting medium (Scotts Company, 14111 Scottslawn Road, Marysville, Ohio 43041) comprising spaghnum peat moss, vermiculite, wetting agent and starter nutrients and treated with postemergence applications of test chemicals formulated in the same manner. Plants ranged in height from 2 to 18 cm (1- to 4-leaf stage) for postemergence treatments. Treated plants and controls were maintained in a greenhouse for 13 to 15 days, after which time all species were compared to controls and visually evaluated. Plant response ratings, summarized in Table C, are based on a scale of 0 to 100 where 0 is no effect and 100 is complete control. A dash (-) response means no test result.

[20] = test system: ragweed (common ragweed, Ambrosia elatior); experiment: Test C preemergence; conditions: Ambrosia artemisiifolia, pre-emergence, 336 h, scale 0 to 100, read-out: Plant response rating, Ragweed
Source text: as §3, §4

## N#Cc1cccc(Oc2ncc(Cl)cn2)c1Oc1ncc(Br)cn1 [Compound 4, 2-[(5-bromo-2-pyrimidinyl)oxy]-3-[(5-chloro-2-pyrimidinyl)oxy]benzonitrile]
Rice (Oryza sativa)
  plant injury at 250 g/ha: 0%
[1]
  pest or weed control at 250 g/ha: 95%
[2]
  pest or weed control at 250 g/ha: 80%
[3]
  pest or weed control at 250 g/ha: 0%
[4]; 125 g ai/ha
  pest or weed control at 125 g/ha: 100%
[4]; 500 g ai/ha
  pest or weed control at 500 g/ha: 100%
[5]; 125 g ai/ha
  pest or weed control at 125 g/ha: 100%
[5]; 500 g ai/ha
  pest or weed control at 500 g/ha: 100%
[6]; 125 g ai/ha
  plant injury at 125 g/ha: 50%
[6]; 500 g ai/ha
  plant injury at 500 g/ha: 100%
Corn (Zea mays); 125 g ai/ha
  Corn plant response rating (crop injury, 0 = no effect, 100 = complete kill) at 125 g/ha: 80%
Corn (Zea mays); 500 g ai/ha
  Corn plant response rating (crop injury, 0 = no effect, 100 = complete kill) at 500 g/ha: 100%
[7]; 125 g ai/ha
  pest or weed control at 125 g/ha: 100%
[7]; 500 g ai/ha
  pest or weed control at 500 g/ha: 100%
[8]; 125 g ai/ha
  pest or weed control at 125 g/ha: 100%
[8]; 500 g ai/ha
  pest or weed control at 500 g/ha: 100%
[9]; 125 g ai/ha
  pest or weed control at 125 g/ha: 100%
[9]; 500 g ai/ha
  pest or weed control at 500 g/ha: 100%
[10]; 125 g ai/ha
  pest or weed control at 125 g/ha: 100%
[10]; 500 g ai/ha
  pest or weed control at 500 g/ha: 100%
[11]; 125 g ai/ha
  pest or weed control at 125 g/ha: 100%
[11]; 500 g ai/ha
  pest or weed control at 500 g/ha: 100%
Kochia (Kochia scoparia) [12]; 125 g ai/ha
  pest or weed control at 125 g/ha: 100%
Kochia (Kochia scoparia) [12]; 500 g ai/ha
  pest or weed control at 500 g/ha: 100%
[13]; 125 g ai/ha
  pest or weed control at 125 g/ha: 100%
[13]; 500 g ai/ha
  pest or weed control at 500 g/ha: 100%
[14]; 125 g ai/ha
  pest or weed control at 125 g/ha: 20%
[14]; 500 g ai/ha
  pest or weed control at 500 g/ha: 100%
[15]; 125 g ai/ha
  pest or weed control at 125 g/ha: 100%
[15]; 500 g ai/ha
  pest or weed control at 500 g/ha: 100%
[16]; 125 g ai/ha
  pest or weed control at 125 g/ha: 70%
[16]; 500 g ai/ha
  pest or weed control at 500 g/ha: 100%
[17]; 125 g ai/ha
  pest or weed control at 125 g/ha: 80%
[17]; 500 g ai/ha
  pest or weed control at 500 g/ha: 100%
Kochia (Kochia scoparia) [18]; 125 g ai/ha
  pest or weed control at 125 g/ha: 90%
Kochia (Kochia scoparia) [18]; 500 g ai/ha
  pest or weed control at 500 g/ha: 100%
[19]; 31 g ai/ha, preemergence
  pest or weed control at 31 g/ha: 30%
[19]; 62 g ai/ha, preemergence
  pest or weed control at 62 g/ha: 30%
[19]; 125 g ai/ha, preemergence
  pest or weed control at 125 g/ha: 100%
[19]; Preemergence, 16 g ai/ha
  pest or weed control at 16 g/ha: 5%
[20]; 31 g ai/ha, preemergence
  pest or weed control at 31 g/ha: 10%
[20]; 62 g ai/ha, preemergence
  pest or weed control at 62 g/ha: 5%
[20]; 125 g ai/ha, preemergence
  pest or weed control at 125 g/ha: 70%
[20]; Preemergence, 16 g ai/ha
  pest or weed control at 16 g/ha: 0%
